# Measured values taken from patent US7579006B2, “Method of treating immune pathologies with low dose estrogen” (Oregon Health and Science University, priority 2000, dated 2009).
# Key:
# [1] = system: spinal cord mRNA; assay: RNase protection assay of chemokine, chemokine receptor and cytokine mRNA in spinal cords of Tg females with EAE; type: in vivo, mice; settings: 0.36 mg pellet
# Description: RNase protection assay. Total RNA was extracted from frozen spinal cords or lymph node cells using the STAT-60 reagent (Tel-Test, Inc., Friendswood, Tex.). Chemokine expression was determined by using the RiboQuant RPA kit (PharMingen) according to the manufacturer's instructions. A multiprobe set detected the following chemokine transcripts: C—X—C chemokines: MIP-2 and IP-10; C—C chemokines: RANTES, MIP-1α, MCP-1, and TCA-3; and C chemokine: Ltn. The chemokine receptor set detected the following transcripts: CCR1, CCR1b, CCR2, CCR3, CCR4, CCR5. Using RPA multiprobe it was possible to detect the following cytokines: IL-4, IL-10, TNF-α, LTβ, IFN-γ. The sample loading was normalized by the housekeeping gene, L32, included in each template set. RPA analysis was performed on […] total RNA hybridized with probes labeled with [^32P]UTP. After digestion of ssRNA, the RNA pellet was solubilized and resolved on a 5% sequencing gel. Controls included the probe set hybridized to transfer RNA only, appropriate control RNA which serves as integrity control for the RNA sample, and yeast tRNA as a background control. For quantification, gels were exposed by phosphorimaging (Bio-Rad Laboratories, Hercules, Calif.) and radioactivity in individual bands (after background subtraction) in comparison with L32 was assessed with Quantity One software (Bio-Rad Laboratories, Hercules, Calif.).
# To optimize detection of clinically-related changes, chemokine expression was compared in 17β-estradiol protected versus sham pellet implanted mice during the peak acute phase of disease (16-17 days after immunization with MBP-Ac1-11 peptide/CFA) and during the chronic phase (28 days after immunization). […] A quantitative method—the RNase protection assay—was employed to examine RNA synthesis for the following chemokines: RANTES, MIP-1α, MCP-1, and TCA-3 (C—C-subfamily); and MIP-2 and IP-10 (C—X—C-subfamily). The tissue sample for RPA was prepared by homogenization of whole spinal cord and total cellular RNA was extracted.
# [2] = system: Lymph node CD3+ T cells; assay: FACS of chemokine receptors on lymph node CD3+ T cells; type: in vivo, mice; settings: 0.36 mg pellet
# Description: Flow cytometry. Lymph node cells from sham and 17β-estradiol treated animals with EAE were washed with PBS/2% FCS/0.2% NaN3 and first incubated on ice for 30 min with Fcγ III/II receptor blocking monoclonal antibody (PharMingen), then stained with PE-conjugated anti-CD3 (PharMingen). After 20 min of incubation with anti-CD3, the cells were fixed and permablized using Cytofix/Cytoperm (PharMingen). Subsequently, cells were incubated with anti-CCR1, anti-CCR2, anti-CCR3, anti-CCR4 and anti-CCR5 goat anti-mouse polyclonal antibodies (Santa Cruz Biotechnology Inc.; USA) for 30 min on ice. After washing, cells were stained with FITC-conjugated anti-goat monoclonal antibodies (Sigma) for an additional 30 min on ice. Cells were analyzed using a FACS-Scan (Becton Dickinson). Propidium iodide and forward/side scatter gating were used to exclude dead cells.
# [3] = system: C57BL/6 mice; assay: EAE induced with MOG 35-55 in C57BL/6 mice (clinical, histopathology); type: in vivo
# Description: Estrogen treatment. Sixty-day release pellets containing 2.5 mg of 17β-estradiol (E2) or vehicle were implanted subcutaneously (s.c) in the scapular region behind the neck using a 12-gauge trochar as described by the manufacturer (Innovative Research of America, Sarasota, Fla.). The mice were implanted one week prior to immunization with MOG 35-55. The concentration of E2 expected in the serum is between 1,500-2,000 pg/ml, which is approximately 5 times less than the levels found during pregnancy.
# Induction of EAE. C57BL/6 and cytokine deficient mice were inoculated s.c in the flanks with 0.2 ml of an emulsion containing 200 μg of MOG 35-55 in saline and an equal volume of complete Freund's Adjuvant (CFA) containing 400 μg of Mycobacterium tuberculosis H37RA (Difco Laboratories, Detroit, Mich.). Disease induction required i.v. administration of pertussis toxin on the day of immunization (25 ng/mouse) and 2 days later (67 ng/mouse). The mice were assessed daily for clinical signs of EAE according to the 7 point scale described in Example I.
# Histopathology. Histopathologic assessment of spinal column section was performed essentially as described in Example I, except that sections were stained with either luxol fast blue-periodic acid schiff-hematoxylin or silver nitrate prior to analysis.
# Statistical analysis. Significant differences in incidence and mortality between untreated and E2 treated mice were assessed by Chi-square analysis. Difference in onset was determined using the two-tailed Student t test. Differences in peak score and cumulative disease index (CDI) were assessed by the Mann-Whitney test. Statistical significance of the frequency of cytokine secreting cells was analyzed using Student's t test for comparisons of two means. Differences in the expression of chemokine and cytokine mRNA were also determined using the Student t test. Values of p<0.05 were considered significant.
# [4] = system: Vβ8.1/8.2 TCR+ spleen cells; assay: Intracellular cytokine staining of MOG 35-55 stimulated spleen cells; type: in vivo, mice
# Description: Intracellular staining for cytokines. Single cell suspensions from spleen were prepared from immunized mice and cultured at 10×10^6 cells/ml in stimulation media containing 50 μg/ml of MOG 35-55. The cells were stimulated for 24 hrs, the last 5 hrs in the presence of Brefeldin A. The cells were then stained with anti-Vβ8.1/8.2 TCR FITC for 30 min at 4° C. prior to fixation and permeabilization with cytofix/cytoperm solution (Pharmingen, Inc.). The cells were then stained with anti-cytokine antibodies labeled with phycoerythrin (anti-mouse IFN-γ, TNF-α, IL-4, IL-10, and IL-12 from Pharmingen Inc.) for 30 min at 4° C. The cells were washed twice in perm/wash buffer (Pharmingen, Inc.) and once in FACS staining buffer (PBS, 1% BSA, 0.05% NaN3) prior to two-color FACS analysis on a FACScan instrument (Beckton-Dickenson, Inc., Sunnyvale, Calif.) using Cell Quest software (Beckton-Dickenson, Inc.). For each experiment the cells were stained with isotype control antibodies to establish background staining and to set the quadrants prior to calculating the percent positive cells.
# In order to determine whether estrogen treatment promotes a shift towards Th2 immunity, the frequency of both pro- and anti-inflammatory cytokine producing cells in untreated and E2 treated mice was assessed, using the intracellular cytokine staining technique. Spleen cells were prepared from untreated and E2 treated mice at the peak of EAE (day 12-16 post-immunization) and stimulated with MOG 35-55 for 24 hr, the last […] in the presence of Brefeldin A. The cells were stained with FITC labeled anti-Vβ8.1/8.2 TCR antibodies prior to fixation and permeabilization, and then were stained with the indicated phycoerythrin labeled anti-cytokine antibodies. Vβ8.1/8.2 TCR bearing T cells were focused on because they are thought to comprise a major population of the MOG-35-55 specific T cell responses in H-2b mice.
smiles,measurement,setting,value
C[C@]12CC[C@@H]3c4ccc(O)cc4CC[C@H]3[C@@H]1CC[C@@H]2O [17β-estradiol],"LT-β, TNF-α and IFN-γ message in spinal cord at peak of EAE",[1],significantly inhibited
same,"chemokine mRNA expression in spinal cord (RANTES, MIP-1α, MIP-2, IP-10, MCP-1)","[1]; intact Tg females, peak of disease p<0.001",profoundly lower levels
same,chemokine mRNA expression in spinal cord,[1]; ovariectomized females,strongly inhibited
same,"mRNA levels for CCR1, CCR2 and CCR5 in spinal cord",[1]; p<0.001,strongly inhibited
same,CCR2 staining of lymph node CD3+ T cells,[2],No difference
same,percentage of CCR5 positive lymph node CD3+ T cells,"[2]; sham 35+4, p=0.03, in %",27+2
same,percentage of CCR1 positive lymph node CD3+ T cells,"[2]; sham 91+6%, p=0.02",77+2%
same,CDI,"[3]; B6, 2.5 mg pellet",15.1 ± 17.0
same,Incidence,"[3]; B6, 2.5 mg pellet",19/31
same,Mortality,"[3]; B6, 2.5 mg pellet",0/31
same,Onset,"[3]; B6, 2.5 mg pellet",20.8 ± 3.7
same,Peak Score,"[3]; B6, 2.5 mg pellet",4.2 ± 1.2
same,Inflammatory foci/section,"[3]; C57BL/6, 2.5 mg pellet, spinal cord",0.0 ± 0.0 Foci/Section
same,frequency of TNF-α producing Vβ8.1/8.2 TCR+ cells,"[4]; C57BL/6 mice, p=0.004",significantly diminished
same,frequency of TNF-α producing Vβ8.1/8.2 TCR+ cells,[4]; IFN-γ knockout mice,no further reduction
same,frequency of TNF-α producing Vβ8.1/8.2 TCR+ cells,"[4]; IL-4 knockout mice, p=0.06",significantly diminished
same,frequency of TNF-α producing Vβ8.1/8.2 TCR+ cells,"[4]; IL-10 knockout mice, p=0.001",significantly diminished
same,frequency of IFN-γ producing cells,"[4]; trend, p>0.05",lower frequency
